Molecular target: D2 receptor (Homo sapiens, UniProt P14416)
Experiment: [3H]Thymidine uptake assay for D2 intrinsic activity
Format: cell-based
Details: Table 1; test compound 1 μM; 1 μM Quinpirole = 100% intrinsic activity
Procedure: D2 intrinsic activity of title compounds of the Examples, below, was determined using the [^3H]thymidine uptake assay described below.
[^3H]Thymidine Uptake Assay for D2 Intrinsic Activity
Cells are serum deprived by washing twice with 200 μl of serum-free media. 90 μl serum-free media was added to each well. The plates ware incubated for two to three hours. 10 μl of serum-containing media, as a positive control, vehicle (serum-free media), negative control (an antagonist) or test compounds and standards (10 μl of a 10 μM solution for a final concentration of 1 μM) in serum-free media were added to wells. The plates are returned to the incubator. Eighteen hours later [^3H]thymidine is added (0.5 μCi/well in 10 μl of serum-free media) and the plates are returned to the incubator. […] The plates are returned to the incubator, once again. One hour later the assay is terminated by rapid filtration through Whatman GF/C glass fiber filters. Filters are washed four times with 500 ml of 50 mM Tris-HCl pH 7.0 buffer, for example, using a Brandel MLR-96T cell harvester. […] Intrinsic activity is defined as total uptake (1 μM Quinpirole) minus serum-free media (no uptake). Test compounds are compared to 1 μM Quinpirole (full DA agonist), which was classified as 100% intrinsic activity.

Chain of D2 receptor (P14416 whole entry): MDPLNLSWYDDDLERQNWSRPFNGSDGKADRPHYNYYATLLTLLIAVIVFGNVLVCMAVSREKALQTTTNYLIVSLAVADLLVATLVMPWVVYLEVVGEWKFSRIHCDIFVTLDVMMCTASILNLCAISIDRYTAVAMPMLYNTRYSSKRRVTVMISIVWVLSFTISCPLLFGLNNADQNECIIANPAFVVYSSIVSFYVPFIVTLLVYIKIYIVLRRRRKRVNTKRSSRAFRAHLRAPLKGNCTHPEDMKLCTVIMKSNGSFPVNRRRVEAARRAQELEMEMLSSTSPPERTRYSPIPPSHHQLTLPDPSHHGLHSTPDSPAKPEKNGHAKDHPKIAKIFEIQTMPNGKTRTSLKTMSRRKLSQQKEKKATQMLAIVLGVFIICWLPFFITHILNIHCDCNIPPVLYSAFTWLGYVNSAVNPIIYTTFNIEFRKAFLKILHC

Question: For `O=C1CCc2c(C(F)(F)F)cc(OCCCCN3CCN(c4cccc5c4CCC5)CC3)nc2N1` [Example E13, 7-[4-(4-Indan-4-yl-piperazin-1-yl)-butoxy]-5-trifluoromethyl-3,4-dihydro-1H-[1,8]naphthyridin-2-one], which Emax at 1 µM is on record?
Answer: 11%

Question: How did the Emax at 1 µM turn out when `O=C1CCc2c(C(F)(F)F)cc(OCCCCN3CCN(c4cccc5ccccc45)CC3)nc2N1` [Example E14, 7-[4-(4-Naphthalen-1-yl-piperazin-1-yl)-butoxy]-5-trifluoromethyl-3,4-dihydro-1H-[1,8]naphthyridin-2-one] was run?
Answer: 36%

Question: For `O=C1CCc2c(C(F)(F)F)cc(OCCCCN3CCN(c4cccc5c4CCCC5)CC3)nc2N1` [Example E15, 7-{4-[4-(5,6,7,8-Tetrahydro-naphthalen-1-yl)-piperazin-1-yl]-butoxy}-5-trifluoromethyl-3,4-dihydro-1H-[1,8]naphthyridin-2-one], which Emax at 1 µM is on record?
Answer: 20%

Question: Which Emax at 1 µM does the source give for `O=C1NCc2ccc(OCCCCN3CCN(c4cccc5c4CCC5)CC3)nc2N1` [Example F3, 7-[4-(4-Indan-4-yl-piperazin-1-yl)-butoxy]-3,4-dihydro-1H-pyrido[2,3-d]pyrimidin-2-one] here?
Answer: 15%

Question: For `O=C1NCc2ccc(OCCCCN3CCN(c4cccc5c4CCCC5)CC3)nc2N1` [Example F4, 7-{4-[4-(5,6,7,8-Tetrahydro-naphthalen-1-yl)-piperazin-1-yl]-butoxy}-3,4-dihydro-1H-pyrido[2,3-d]pyrimidin-2-one], which Emax at 1 µM is on record?
Answer: 23%

Question: Which Emax at 1 µM does the source give for `O=C1NCc2ccc(OCCCCN3CCN(c4cccc5ccc(F)cc45)CC3)nc2N1` [Example F5, 7-{4-[4-(7-Fluoro-naphthalen-1-yl)-piperazin-1-yl]-butoxy}-3,4-dihydro-1H-pyrido[2,3-d]pyrimidin-2-one] here?
Answer: 32%

Question: With `N#Cc1ccc2cccc(N3CCN(CCCCOc4ccc5c(n4)NC(=O)NC5)CC3)c2c1` [Example F6, 8-{4-[4-(2-Oxo-1,2,3,4-tetrahydro-pyrido[2,3-d]pyrimidin-7-yloxy)-butyl]-piperazin-1-yl}-naphthalene-2-carbonitrile] as the compound, how does the Emax at 1 µM read?
Answer: 37%

Question: Which Emax at 1 µM does the source give for `CN1Cc2ccc(OCCCCN3CCN(c4cccc(Cl)c4Cl)CC3)nc2NC1=O` [Example F7, 7-{4-[4-(2,3-Dichloro-phenyl)-piperazin-1-yl]-butoxy}-3-methyl-3,4-dihydro-1H-pyrido[2,3-d]pyrimidin-2-one] here?
Answer: 11%

Question: Which Emax at 1 µM does the source give for `CN1Cc2ccc(OCCCCN3CCN(c4cccc5ccccc45)CC3)nc2NC1=O` [Example F8, 3-Methyl-7-[4-(4-naphthalen-1-yl-piperazin-1-yl)-butoxy]-3,4-dihydro-1H-pyrido[2,3-d]pyrimidin-2-one] here?
Answer: 15%

Question: How did the Emax at 1 µM turn out when `CC1(C)OC(=O)Nc2nc(CCCCCN3CCN(c4cccc(Cl)c4Cl)CC3)ccc21` [Example F9, 7-{5-[4-(2,3-Dichloro-phenyl)-piperazin-1-yl]-pentyl}-4,4-dimethyl-1,4-dihydro-pyrido[2,3-d][1,3]oxazin-2-one] was run?
Answer: 11%

Question: Which Emax at 1 µM does the source give for `O=C1COc2ccc(CCCCCN3CCN(c4cccc(Cl)c4Cl)CC3)nc2N1` [Example G1, 6-{5-[4-(2,3-Dichloro-phenyl)-piperazin-1-yl]-pentyl}-4H-pyrido[3,2-b][1,4]oxazin-3-one] here?
Answer: 27%

Question: How did the Emax at 1 µM turn out when `O=C1COc2ccc(CCCCCN3CCN(c4cccc5c4CCCC5)CC3)nc2N1` [Example G2, 6-{5-[4-(5,6,7,8-Tetrahydro-naphthalen-1-yl)-piperazin-1-yl]-pentyl}-4H-pyrido[3,2-b][1,4]oxazin-3-one] was run?
Answer: 6%

Same assay, conditions: Table 2; test compound 1 μM; 1 μM Quinpirole = 100% intrinsic activity

Question: Which Emax at 1 µM does the source give for `O=c1ccc2cnc(OCCCCN3CCN(c4cccc5c4OCCO5)CC3)nc2[nH]1` [Example G1′, 2-{4-[4-(2,3-Dihydro-benzo[1,4]dioxin-5-yl)-piperazin-1-yl]-butoxy}-8H-pyrido[2,3-d]pyrimidin-7-one] here?
Answer: 20%

Question: How did the Emax at 1 µM turn out when `O=c1ccc2cnc(OCCCCN3CCN(c4cccc5c4OCCC5)CC3)nc2[nH]1` [Example G2′, 2-[4-(4-Chroman-8-yl-piperazin-1-yl)-butoxy]-8H-pyrido[2,3-d]pyrimidin-7-one] was run?
Answer: 21%
